Laboratory results taken from US8778966B2, “Quinolinone derivatives as PARP and tank inhibitors” (Janssen Pharmaceutica, NV, priority 2007, dated 2014).

Legend:
[1] = test system: HCT116 cells; experiment: Mitotic arrest assay on HCT116 cells (phospho-histone H3 Ser10); format: cell-based, human; settings: Homo sapiens, HCT-116, HCT116 cells; lowest active dose; read-out: Mitotic arrest HCT116 LAD (converted)
In short: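 Seeded overnight, then compound-treated 6 h at 37 °C (≤0.1% DMSO); fixed, stained with Alexa Fluor 488 anti-phospho-H3 (Ser10) plus Hoechst 33342, imaged on InCell Analyzer 1000. Blank-subtracted signal divided by SD (sigma), triplicate; value is lowest dose giving sigma >5 (LAD).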

[2] = test system: PC3 cells; experiment: EB1 Comet (microtubule disruption) assay; format: cell-based, human; settings: Homo sapiens, PC-3, 1 h, 1 hour treatment, read-out: EB1 pLAC (converted)
In short: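 PC3 human prostate cancer cells exposed to compound for 1 h at 37 °C (0.6% DMSO final), methanol-fixed, immunostained for Eb1 and imaged at 20×. Value is the lowest active concentration (LAC): the concentration at which Eb1 foci are absent in at least 50% of treated cells.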

[3] = test system: tubulin; experiment: Tubulin polymerization assay; format: biochemical; design: key: a compound showing 0 to 50% inhibition at 20 μM is reported as score 1; Score 2 compounds are defined as compound showing more than 50% inhibition at 20 μM and less than 50% inhibition at 5 μM; a compound showing more than 50% inhibition at 5 μM is reported as score 3; settings: tested at 20 μM and 5 μM
In short: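 Cytoskeleton kit tubulin was run in a 10 µl final volume at 37 °C, with fluorescence read every minute for 1 h. Polymerization was taken as the maximum slope (4-point linear regression) and expressed as % of no-compound control. Compounds were tested at 20 µM, then at 5 µM if inhibition exceeded 50%, and scored by % inhibition.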

Structure (SMILES) | melting point | minimal effective concentration [1] | minimal effective concentration [2] | tubulin polymerisation score [3]
CCc1cc2ccc(C(C)(C#N)Cc3nc(C#N)cc(OC)n3)cc2[nH]c1=O (single isomer, unassigned) [Compound 204] | 180 °C |  |  | 
CCc1cc2ccc(C(C)(C#N)Cc3cccc(OCCCN4CCNCC4)c3)cc2[nH]c1=O (centres unmarked) [Compound 25] | 50 °C | 1 µM | > 10 µM | 
CCc1cc2ccc(C(C#N)(Cc3ccccc3)c3ccc(C#N)cc3)cc2[nH]c1=O (centres unmarked) [Compound 26] | 255 °C | > 10 µM | > 10 µM | 
CCc1cc2ccc(C(C#N)(Cc3ccccc3)c3ccccc3)cc2[nH]c1=O (centres unmarked) [Compound 27] | 229 °C | 3.16 µM | 10 µM | 
CCc1cc2ccc(C(C#N)(Cc3ccccc3)C3CC3)cc2[nH]c1=O (centres unmarked) [Compound 29] | 186 °C | 1 µM | 1 µM | 
CCc1cc2ccc(C(C#N)(Cc3ccccc3)C(C)C)cc2[nH]c1=O (centres unmarked) [Compound 30] | 234 °C | 3.16 µM | 3.16 µM | 
CCCC(C#N)(Cc1ccccc1)c1ccc2cc(CC)c(=O)[nH]c2c1 (centres unmarked) [Compound 31] | 210 °C | 1 µM | 10 µM | 
CCc1cc2ccc(C(C)(C#N)Cc3cc(OC)ccc3F)cc2[nH]c1=O (centres unmarked) [Compound 171] | 160 °C |  | 0.1 µM | 
CCc1cc2ccc(C(C)(C#N)Cc3cccc(-c4ccc[nH]4)c3)cc2[nH]c1=O (centres unmarked) [Compound 176] | 194 °C | 1 µM | 1 µM | 
CCc1cc2ccc(C(C)(C#N)Cc3cccc(CCS(C)(=O)=O)c3)cc2[nH]c1=O (centres unmarked) [Compound 178] | 150 °C | 3 µM | 3.16 µM | 
CCc1cc2ccc(C(C)(C#N)Cc3cccc(/C=N/OC)c3)cc2[nH]c1=O (centres unmarked) [Compound 185] | 170 °C |  | 0.1 µM | 
CCc1cc2ccc(C(C)(C#N)Cc3cccc(OCCCC#N)c3)cc2[nH]c1=O (centres unmarked) [Compound 194] | 148 °C |  | 1 µM | 2
CCc1cc2ccc(C(C)(C#N)Cc3cccc(OCCC#N)c3)cc2[nH]c1=O (centres unmarked) [Compound 195] | 161 °C | 0.1 µM | 0.0316 µM | 1 (a compound showing 0 to 50% inhibition at 20 μM is reported as score 1)
C#CCOc1cccc(CC(C)(C#N)c2ccc3cc(CC)c(=O)[nH]c3c2)c1 (centres unmarked) [Compound 196] | 141 °C | 0.3 µM |  | 2
CCc1cc2ccc(C(C)(C#N)Cc3cccc(OCCS(C)(=O)=O)c3)cc2[nH]c1=O (centres unmarked) [Compound 201] | 55 °C |  | 0.562 µM | 
CCc1cc2ccc(C(C)(C#N)Cc3nc(Cl)cc(OC)n3)cc2[nH]c1=O (centres unmarked) [Compound 202] | 162 °C | 0.1 µM |  | 2
CCc1cc2ccc(C(C)(C#N)Cc3nc(N(C)C)cc(N(C)C)n3)cc2[nH]c1=O (centres unmarked) [Compound 205] | 194 °C | 0.3 µM | 1 µM | 
CCc1cc2ccc(C(C)(C#N)Cc3cccc(N4CCC(N(C)C)C4)n3)cc2[nH]c1=O (centres unmarked) [Compound 209] | 154 °C | 1 µM | 0.316 µM | 
CCc1cc2ccc(C(C)(C#N)Cc3cccc(C#Cc4cncn4C)n3)cc2[nH]c1=O (centres unmarked) [Compound 217] | 111 °C | 3 µM | 1 µM | 
CCc1cc2ccc(C(C)(C#N)Cc3cccc(N(C)CCc4ccccc4)n3)cc2[nH]c1=O.Cl (centres unmarked) [Compound 220] | 99 °C | 3 µM | 3.16 µM | 
CCc1cc2ccc(C(C)(C#N)Cc3cccc(C#N)[n+]3[O-])cc2[nH]c1=O (centres unmarked) [Compound 228] | 121 °C |  | 0.562 µM | 
CCc1cc2c(OC)cc(C(C)(C#N)Cc3nc(OC)cc(OC)n3)cc2[nH]c1=O (centres unmarked) [Compound 229] | 180 °C | 3 µM | 3.16 µM | 
CCc1cc2ccc(C(C)(C#N)CN3CCN(c4ccccn4)CC3)cc2[nH]c1=O (centres unmarked) [Compound 233] | 209 °C | 1 µM | 1 µM | 1 (a compound showing 0 to 50% inhibition at 20 μM is reported as score 1)
CCc1cc2ccc(C(C)(C#N)Cc3cccc4c3CCN4)cc2[nH]c1=O (centres unmarked) [Compound 237] | 210 to 211 °C | 1 µM | 3.16 µM | 
CCc1cc2ccc(C(C)(C#N)Cc3nc(C#N)cc(OC)n3)cc2[nH]c1=O (centres unmarked) [Compound 313] |  | 0.3 µM | 0.0316 µM | 2
CCc1cc2ccc(C(C)(C#N)Cc3nc(C#N)cc(N(C)C)n3)cc2[nH]c1=O (centres unmarked) [Compound 318] |  | 0.3 µM | 0.316 µM | 1 (a compound showing 0 to 50% inhibition at 20 μM is reported as score 1)
CCc1cc2ccc(C(C)(C#N)Cc3cc(C#N)nc(C)n3)cc2[nH]c1=O (centres unmarked) [Compound 319] |  | 0.3 µM | 1 µM | 2
CCc1cc2ccc(C(C)(C#N)CN3CCC(c4ccccc4)CC3)cc2[nH]c1=O (centres unmarked) [Compound 375] |  | 0.3 µM | 0.316 µM | 1 (a compound showing 0 to 50% inhibition at 20 μM is reported as score 1)
CCc1cc2ccc(C(C)(C#N)CN3CCN(c4ccc(C#N)cn4)CC3)cc2[nH]c1=O (centres unmarked) [Compound 377] |  | 0.3 µM | 1 µM | 1 (a compound showing 0 to 50% inhibition at 20 μM is reported as score 1)
